Measurements published in patent US6924309B2 (Children, Youth and Women's Health Service Incorporated, priority 1999, dated 2005).
Like-named read-outs stand apart in the source and are kept apart here.

Columns and labels:
[1] = Thin film autoxidation of arachidonic acid with compounds 16-19 (HPLC)
Excerpt: Subsequently, the autoxidation of compounds 16-19 and their effects on the autoxidation of arachidonic acid were investigated. In these experiments, a thin film assay method was employed. For each reaction, arachidonic acid was mixed with one of the synthetic compounds 16, 17, 18 or 19 at 1:1 ratio with or without the radical initiator, azobisisobutyronitrile (AIBN). A reverse phase HPLC method was used to simultaneously measure the relative amounts of arachidonic acid and the synthetic compounds 16, 17, 18 or 19 recovered following 60 or 70 hours or 7 days of thin film autoxidation.

[2] = Petri-dish thin film autoxidation of arachidonic acid with thia fatty acids and sulfides (HPLC); details: for Arachidonic acid (%) recovered following autoxidation: arachidonic acid alone
Protocol: A stock solution in dichioromethane (2 ml) containing arachidonic acid 1 (18 mg) and 3-[(3Z,6Z)-nona-3,6dienylthio]propionic acid 106 (18 mg) was prepared with lauric acid (18 mg) as an internal standard. Samples of the stock solution (100 μl) were added to glass Petri-dishes followed by ethanol (400 μl). After evaporation of the solvent, a well-distributed thin film was formed on each Petri-dish. The Petri-dishes were placed in a desiccator, which was then evacuated, filled with oxygen and stored in the darkness. Dishes were removed from the desiccator after 1, 2, 3, 5 and 7 days. The mixture on each dish was redissolved in diethyl ether and transferred to a 2 ml vial. After evaporation of the solvent, the residue was dissolved in the HPLC mobile phase (100 μl) and 10% of the solution was analysed by HPLC using a reverse phase column (octadecylsilane) (4.6 mm×250 mm, 3 μm) and a refractive index detector.
Autoxidation of arachidonic acid was conducted in the presence of compound 19 and lauric acid. Stock solutions of arachidonic acid, compound 19 and lauric acid in dichloromethane with equal concentrations were added to a 25 ml round-bottomed flask, and the solvent was evaporated to leave a thin film on the internal surface of the flask. The flask was then filled with oxygen and kept in the dark. The percentages of arachidonic acid and compound 19 remaining after 7 days were measured by HPLC. The same assay was carried out simultaneously with several flasks but the results were not reproducible. The variation was attributed to differences in oxygen concentration and the surface area of the thin films formed in the flasks. Therefore, in order to establish a reproducible assay for the analysis of the autoxidation of arachidonic acid, Petri-dishes with uniform size (80 mm in diameter) were used instead of flasks for thin film formation and the oxidation was carried out by placing the Petri-dishes in a dessicator filled with oxygen. To assess this method, thin firms of arachidonic acid with lauric acid as a standard were prepared on six Petri-dishes using identical treatment, and then subjected to oxidation in the same dessicator filled with oxygen. After 24 h, the percentage of arachidonic acid recovered following autoxidation in each Petri-dish was determined by HPLC. […] The advantage of using a Petri-dish over a flask is that the thin films on each Petri-dish are spread over the same area, and each Petri-dish is exposed to oxygen to the same extent.
Using the Petri-dish assay method, the effects of the thia PUFAs and sulfides 106 and 108-111, along with compounds 18, 19 and 3-[(Z,Z,Z)-(octadeca-9,12,15-trienylthio)] propionic acid 112 which were available in the laboratory, on the autoxidation of arachidonic acid, were examined. In addition, the stability of these compounds in the presence of arachidonic acid was also investigated. Arachidonic acid and lauric acid as a standard were mixed with each sulfur compound at different ratios and the mixtures were subjected to thin film autoxidation. The mixtures were analysed by HPLC after 1,2,3,5 and 7 days.

[3] = 1:1 ratio with arachidonic acid
[4] = compound at one-tenth that of arachidonic acid
[5] = ratio arachidonic acid:compound 1:1, 1 day
[6] = ratio arachidonic acid:compound 1:1, 2 days
[7] = ratio arachidonic acid:compound 1:1, 3 days
[8] = ratio arachidonic acid:compound 1:1, 5 days
[9] = ratio arachidonic acid:compound 1:1, 7 days
[10] = ratio arachidonic acid:compound 2:1, 1 day
[11] = ratio arachidonic acid:compound 2:1, 2 days
[12] = ratio arachidonic acid:compound 2:1, 3 days
[13] = ratio arachidonic acid:compound 2:1, 5 days
[14] = ratio arachidonic acid:compound 2:1, 7 days
[15] = ratio arachidonic acid:compound 10:1, 1 day
[16] = ratio arachidonic acid:compound 10:1, 2 days
[17] = ratio arachidonic acid:compound 10:1, 3 days
[18] = ratio arachidonic acid:compound 10:1, 5 days
[19] = ratio arachidonic acid:compound 10:1, 7 days

CC/C=C\C/C=C\C/C=C\CCCCCCCCOCC(=O)O [Compound 17, (Z,Z,Z)-(octadeca-9,12,15-trienyloxy) acetic acid]
Percentage of arachidonic acid recovered in the presence of the compound ([1]; ratio 1:1, 10% AIBN 60 h): 44% | Percentage of compound recovered (with arachidonic acid) ([1]; ratio 1:1, 10% AIBN 60 h): 49% | Percentage of arachidonic acid recovered in the presence of the compound ([1]; ratio 1:1, no additive 70 h): 92% | Percentage of compound recovered (with arachidonic acid) ([1]; ratio 1:1, no additive 70 h): 102% | Percentage of arachidonic acid recovered in the presence of the compound ([1]; ratio 1:1, no additive 7 day): 30% | Percentage of compound recovered (with arachidonic acid) ([1]; ratio 1:1, no additive 7 day): 41% | Autoxidation of arachidonic acid in the presence of the compound (in words) ([1]; ratio 1:1, with or without AIBN): substantial degree of autoxidation

CCCCC/C=C\C/C=C\C/C=C\CCCCCOCC(=O)O [Compound 16, (Z,Z,Z)-(octadeca-6,9,12-trienyloxy) acetic acid]
Percentage of arachidonic acid recovered in the presence of the compound ([1]; ratio 1:1, 10% AIBN 60 h): 17% | Percentage of compound recovered (with arachidonic acid) ([1]; ratio 1:1, 10% AIBN 60 h): 11% | Percentage of arachidonic acid recovered in the presence of the compound ([1]; ratio 1:1, no additive 70 h): 97% | Percentage of compound recovered (with arachidonic acid) ([1]; ratio 1:1, no additive 70 h): 88% | Percentage of arachidonic acid recovered in the presence of the compound ([1]; ratio 1:1, no additive 7 day): 23% | Percentage of compound recovered (with arachidonic acid) ([1]; ratio 1:1, no additive 7 day): 27%

CCCCC/C=C\C/C=C\C/C=C\C/C=C\CCCC(=O)O [Arachidonic acid, arachidonic acid, reference compound]
Arachidonic acid (%) recovered following autoxidation ([2]; 1 day): 91% | Arachidonic acid (%) recovered following autoxidation ([2]; 2 days): 20% | Arachidonic acid (%) recovered following autoxidation ([2]; 3 days): 16% | Arachidonic acid (%) recovered following autoxidation ([2]; 5 days): 12%

CC/C=C\C/C=C\CCSCCC(=O)O [Compound 106]
Antioxidant effect on autoxidation of arachidonic acid (in words) [2]: effective antioxidants | Antioxidant effect on autoxidation of arachidonic acid (in words) [2, 3]: almost complete prevention of autoxidation | Antioxidant effect on autoxidation of arachidonic acid (in words) [2, 4]: very slow over the first 3 days | Arachidonic acid (%) recovered following autoxidation in the presence of the compound [2, 5]: 99% | Compound (%) recovered following autoxidation with arachidonic acid [2, 5]: 98% | Arachidonic acid (%) recovered following autoxidation in the presence of the compound [2, 6]: 98% | Compound (%) recovered following autoxidation with arachidonic acid [2, 6]: 96% | Arachidonic acid (%) recovered following autoxidation in the presence of the compound [2, 7]: 99% | Compound (%) recovered following autoxidation with arachidonic acid [2, 7]: 98% | Arachidonic acid (%) recovered following autoxidation in the presence of the compound [2, 8]: 100% | Compound (%) recovered following autoxidation with arachidonic acid [2, 8]: 97% | Arachidonic acid (%) recovered following autoxidation in the presence of the compound [2, 9]: 101% | Compound (%) recovered following autoxidation with arachidonic acid [2, 9]: 98% | Arachidonic acid (%) recovered following autoxidation in the presence of the compound [2, 10]: 98% | Compound (%) recovered following autoxidation with arachidonic acid [2, 10]: 97% | Arachidonic acid (%) recovered following autoxidation in the presence of the compound [2, 11]: 99% | Compound (%) recovered following autoxidation with arachidonic acid [2, 11]: 98% | Arachidonic acid (%) recovered following autoxidation in the presence of the compound [2, 12]: 98% | Compound (%) recovered following autoxidation with arachidonic acid [2, 12]: 97% | Arachidonic acid (%) recovered following autoxidation in the presence of the compound [2, 13]: 99% | Compound (%) recovered following autoxidation with arachidonic acid [2, 13]: 97% | Arachidonic acid (%) recovered following autoxidation in the presence of the compound [2, 14]: 99% | Compound (%) recovered following autoxidation with arachidonic acid [2, 14]: 100% | Arachidonic acid (%) recovered following autoxidation in the presence of the compound [2, 15]: 101% | Compound (%) recovered following autoxidation with arachidonic acid [2, 15]: 94% | Arachidonic acid (%) recovered following autoxidation in the presence of the compound [2, 16]: 101% | Compound (%) recovered following autoxidation with arachidonic acid [2, 16]: 84% | Arachidonic acid (%) recovered following autoxidation in the presence of the compound [2, 17]: 99% | Compound (%) recovered following autoxidation with arachidonic acid [2, 17]: 59% | Arachidonic acid (%) recovered following autoxidation in the presence of the compound [2, 18]: 79% | Arachidonic acid (%) recovered following autoxidation in the presence of the compound [2, 19]: 16%

CCCCC/C=C\C/C=C\C/C=C\C/C=C\CCCCSCCC [Compound 110, propyl(all-Z)-eicosa-5,8,11,14-tetraenylpropyl sulfide]
Antioxidant effect on autoxidation of arachidonic acid (in words) [2, 3]: effectively inhibit | Antioxidant effect on autoxidation of arachidonic acid (in words) [2, 4]: still effective antioxidiants | Arachidonic acid (%) recovered following autoxidation in the presence of the compound [2, 7]: 100% | Compound (%) recovered following autoxidation with arachidonic acid [2, 7]: 99% | Arachidonic acid (%) recovered following autoxidation in the presence of the compound [2, 9]: 100% | Compound (%) recovered following autoxidation with arachidonic acid [2, 9]: 100% | Arachidonic acid (%) recovered following autoxidation in the presence of the compound [2, 15]: 97% | Compound (%) recovered following autoxidation with arachidonic acid [2, 15]: 85% | Arachidonic acid (%) recovered following autoxidation in the presence of the compound [2, 16]: 89% | Compound (%) recovered following autoxidation with arachidonic acid [2, 16]: 22% | Arachidonic acid (%) recovered following autoxidation in the presence of the compound [2, 17]: 67% | Arachidonic acid (%) recovered following autoxidation in the presence of the compound [2, 18]: 24% | Arachidonic acid (%) recovered following autoxidation in the presence of the compound [2, 19]: 10%

CCCCCCCCCCCCCCSCCC [Compound 111, propyltetradecyl sulfide]
Antioxidant effect on autoxidation of arachidonic acid (in words) [2, 3]: effectively inhibit | Antioxidant effect on autoxidation of arachidonic acid (in words) [2, 4]: still effective antioxidiants | Arachidonic acid (%) recovered following autoxidation in the presence of the compound [2, 5]: 100% | Compound (%) recovered following autoxidation with arachidonic acid [2, 5]: 101% | Arachidonic acid (%) recovered following autoxidation in the presence of the compound [2, 6]: 98% | Compound (%) recovered following autoxidation with arachidonic acid [2, 6]: 91% | Arachidonic acid (%) recovered following autoxidation in the presence of the compound [2, 7]: 98% | Compound (%) recovered following autoxidation with arachidonic acid [2, 7]: 92% | Arachidonic acid (%) recovered following autoxidation in the presence of the compound [2, 8]: 98% | Compound (%) recovered following autoxidation with arachidonic acid [2, 8]: 92% | Arachidonic acid (%) recovered following autoxidation in the presence of the compound [2, 9]: 97% | Compound (%) recovered following autoxidation with arachidonic acid [2, 9]: 90% | Arachidonic acid (%) recovered following autoxidation in the presence of the compound [2, 15]: 99% | Compound (%) recovered following autoxidation with arachidonic acid [2, 15]: 81% | Arachidonic acid (%) recovered following autoxidation in the presence of the compound [2, 16]: 99% | Compound (%) recovered following autoxidation with arachidonic acid [2, 16]: 63% | Arachidonic acid (%) recovered following autoxidation in the presence of the compound [2, 17]: 97% | Compound (%) recovered following autoxidation with arachidonic acid [2, 17]: 38% | Arachidonic acid (%) recovered following autoxidation in the presence of the compound [2, 18]: 68% | Arachidonic acid (%) recovered following autoxidation in the presence of the compound [2, 19]: 17%

CC/C=C\C/C=C\C/C=C\CCCCCCCCSCCC(=O)O [Compound 112, 3-[(Z,Z,Z)-(octadeca-9,12,15-trienylthio)]-propionic acid]
Antioxidant effect on autoxidation of arachidonic acid (in words) [2]: effective antioxidants | Antioxidant effect on autoxidation of arachidonic acid (in words) [2, 3]: effective as an antioxidant | Antioxidant effect on autoxidation of arachidonic acid (in words) [2, 4]: less effective than either compound 19 or 106 | Arachidonic acid (%) recovered following autoxidation in the presence of the compound [2, 5]: 100% | Compound (%) recovered following autoxidation with arachidonic acid [2, 5]: 100% | Arachidonic acid (%) recovered following autoxidation in the presence of the compound [2, 6]: 99% | Compound (%) recovered following autoxidation with arachidonic acid [2, 6]: 98% | Arachidonic acid (%) recovered following autoxidation in the presence of the compound [2, 7]: 98% | Compound (%) recovered following autoxidation with arachidonic acid [2, 7]: 97% | Arachidonic acid (%) recovered following autoxidation in the presence of the compound [2, 8]: 99% | Compound (%) recovered following autoxidation with arachidonic acid [2, 8]: 97% | Arachidonic acid (%) recovered following autoxidation in the presence of the compound [2, 9]: 93% | Compound (%) recovered following autoxidation with arachidonic acid [2, 9]: 86% | Arachidonic acid (%) recovered following autoxidation in the presence of the compound [2, 15]: 82% | Compound (%) recovered following autoxidation with arachidonic acid [2, 15]: 25% | Arachidonic acid (%) recovered following autoxidation in the presence of the compound [2, 16]: 33% | Arachidonic acid (%) recovered following autoxidation in the presence of the compound [2, 17]: 17% | Arachidonic acid (%) recovered following autoxidation in the presence of the compound [2, 18]: 4%
